Test results reported in patent publication US7572436B1, “Thionin as an antineoplastic and immunostimulant” (priority 2000, dated 2009).
Where “and” joins values, the source holds several entries; their conditions need not be identical. Equal entries are not always repeated. Where no end group is shown, it is not given here.

Assays:
Format in all cases: cell-based
DU-145 Target Cells = assay: Natural killer assay (^51Cr release), human PBLs against DU-145; conditions: PT 0.05 μg/ml
Experimental: (§1) Murine spleen cell and human peripheral blood lymphocytes (PBLs) were obtained as described in the procedure for the Mitogen Assay.
(§2) Drugs and control substances were added, using sterile techniques, to the wells of a 24-well plate, using RPMI-10 as the culture medium. Spleen cells or human lymphocytes were added last to the wells at a concentration of 4×10^6 cells per 2 ml total volume in the well. Splenocyte incubation was usually three days (65-70 hours) while human lymphocyte stimulation may be extended to four to five days. The cells were incubated at 37° C. in a humidified 5% CO2 incubator.
On the day of harvest, 10^7 target cells were labeled with 150 μCi of ^51Cr (sodium chromate). Target cells used were YAC-I (murine Lymphoma) or K562 (human chronic myelogenous leukemia). […]
The 96-well plate was centrifuged at 150×g for four minutes to gently bring the effector and target cells in contact. […] The percent release was calculated using the following formula: […]
Addition of PT stimulates both murine splenocytes and human PBLs to kill tumor cells through lysis. […] After a 30-minute incubation, the radioactivity in the supernatant fluid was counted as a measure of lysis of the target cells, which reflects NK activity. […]

Balb C splenocytes = assay: Mitogen assay (^3H-thymidine uptake), murine splenocytes; conditions: for CPM of tritiated thymidine incorporated: Balb C splenocytes
Source text: Murine spleen cells or human peripheral blood lymphocytes (PBLS) were obtained aseptically as described herein for use in the mitogen assay. When murine splenocytes were used, they were first treated with red cell lysing buffer (0.17 M Tris, 0.144 NH4C1, pH 7.2), washed in RPMI-10 (standard RPMI growth medium, Sigma Chemical Co., St. Louis, Mo., supplemented with 10% fetal bovine serum) and viable cells counted using Trypan Blue exclusion. Human PBLs were isolated from blood using HISTOPAQUE™-1077, a solution of FICOLL™ and sodium diatrizoate (Sigma Chemical Co., St. Louis, Mo.), and subsequent washings with RPMI-5 (RPMI supplemented with 5% fetal bovine serum) to remove platelets. Isolated lymphocytes were resuspended in RPMI-10 and a viable cell yield determined by Trypan Blue exclusion.
Drugs and known mitogenic controls were added in triplicate to a 96-well flat bottom microplate aseptically. The culture medium was RPMI-10. Splenocytes or human-lymphocytes were added at a concentration of 3-4×10^5 cells/well, to a final volume of 200 μl/well. The assay plate was incubated at 37° C. in a 5% CO2 humidified incubator. At 48-50 hours, ^3H-thymidine was added (1 μCi/well), and the plate was harvested approximately 16-18 hours later.
Mitogen assay microplates were harvested using an Inotech plate harvester (Inotech Biosystems International, Inc., Rockville, Md.). Counts per minute (cpm) per well were measured using the Berthold-Inotech Trace 96-plate reader (Inotech AT, Wohlen, Switzerland) and/or a scintillation counter (Packard Tri-carb 2100TR, Packard Instrument Co., Meriden, Conn.). Mitogenic activity was directly determined by comparing cpm levels to controls.
To test whether PT stimulates mitogen activity, splenocytes were incubated for two days with IL-2 (50 units/ml) or KLH (20 μg/ml) in conjunction with PT in the concentrations shown. Figures represent the radioactivity counts of tritiated thymidine taken up during a subsequent 20-hour incubation period of cells incubated with tritiated thymidine in RPMI.

YAC-1 target cells = assay: Natural killer assay (^51Cr release), murine splenocytes against YAC-1; conditions: for % Cell Lysis: Balb/C splenocytes, ^51Cr loaded YAC-1 cells
Experimental: as §1, §2
On the day of harvest, 10^7 target cells were labeled with 150 μCi of ^51Cr (sodium chromate). Target cells used were YAC-I (murine Lymphoma) or K562 (human chronic myelogenous leukemia).
The cells were adjusted to 2×10^7 cells/ml in RPMI-10 and 150 μCi of ^51Cr were added to 500 μl of the target cell suspension (10^7 total cells) and incubated in a 5% CO2 humidified incubator for 1.5 hours. The labeled cells were washed three times with 10 ml RPMI-10 and then resuspended in 5 ml (2×10^6 cells/ml). Supernatants from washings of labeled cells were isolated and contained under lead shielding.
The stimulated effector cells were thoroughly mixed and removed from individual wells of the 24-well plate and transferred to tubes for centrifugation at 200×g. The supernatants were decanted and the pelleted cells washed once with 2 ml RPMI-10. The cells were finally resuspended in a total volume of 500 μl at approximately 8×10^6 cells/ml in RPMI-10.
One hundred microliters of the effector cell suspension (8×10^5 cells) were added in triplicate to a 96-well, V-bottom microplate. RPMI-10 was added to the wells designated for spontaneous release and total release of the target cells. One hundred microliters of the target cell suspension (1×10^4 cells/well) were added to the wells for a total volume of 200 μl. The “total release” wells contained 15 μl of 9% Triton X-100, 85 μl of RPMI-10, and 100 μl of target cells.
The 96-well plate was centrifuged at 150×g for four minutes to gently bring the effector and target cells in contact. The plate was then incubated in a humidified 5% CO2 incubator. After four hours, the assay plate was again centrifuged for five minutes at 250×g. One hundred microliters of the supernatant was carefully removed from each well and placed in 12 mm×75 mm glass tubes for counting in a gamma counter. The percent release was calculated using the following formula: […]
Addition of PT stimulates both murine splenocytes and human PBLs to kill tumor cells through lysis. This effect is enhanced in the presence of IL-2. Experimentally, the YAC-1 tumor cell line is routinely used as a target cell for murine NK cells, and the K562 cell line is used as the target for human PBLs. The human prostate cell line DU145 was also included in the test. The data set out in Table 5 show an activation of both murine and human NK cells by PT and IL-2. For these experiments, the drugs, PT and IL-2, were included in the cell suspension and incubated for 48 hours. After this period, the splenocyte suspension was mixed with the YAC-1 target cells that had been loaded with ^51Cr for four hours. The human PBLs were added to a K562 or DU-145 cell suspension that had been similarly loaded. After a 30-minute incubation, the radioactivity in the supernatant fluid was counted as a measure of lysis of the target cells, which reflects NK activity. […]

Pyrularia thionin (KSCCRNTWARNCYNVCRLPGTISREICAKKCDCKIISGTTCPSDYPK; ends and bridges not checked; also: labeled with 125I) [PT]
% Cytotoxicity (DU-145 Target Cells): 11.5 ± 1.1%
CPM of tritiated thymidine incorporated (Balb C splenocytes; 0.003 μg/ml, RPMI + IL-2 50 units/ml): 2,656 ± 110 CPM
CPM of tritiated thymidine incorporated (Balb C splenocytes; 0.003 μg/ml, RPMI + KLH 20 μg/ml): 3,957 ± 134 CPM
CPM of tritiated thymidine incorporated (Balb C splenocytes; 0.003 μg/ml, RPMI): 230 ± 6 CPM
Cpm, standard mitogen assay (Balb C splenocytes; 0.01 μg/ml PT, GM-CSF (5 ng/ml)): 1,767 Cpm
Cpm, standard mitogen assay (Balb C splenocytes; 0.01 μg/ml PT, GM-CSF (20 ng/ml)): 1,254 Cpm
Cpm, standard mitogen assay (Balb C splenocytes; 0.01 μg/ml PT, no GM-CSF, BALB C spleen cells): 287 Cpm
CPM of tritiated thymidine incorporated (Balb C splenocytes; 0.01 μg/ml, KLH 20 μg/ml): 3,737 ± 134 CPM
CPM of tritiated thymidine incorporated (Balb C splenocytes; 0.03 μg/ml, RPMI + IL-2 50 units/ml): 3,017 ± 107 CPM
CPM of tritiated thymidine incorporated (Balb C splenocytes; 0.03 μg/ml, RPMI + KLH 20 μg/ml): 4,162 ± 200 CPM
CPM of tritiated thymidine incorporated (Balb C splenocytes; 0.03 μg/ml, RPMI): 269 ± 57 CPM
Cpm, standard mitogen assay (Balb C splenocytes; 0.1 μg/ml PT, GM-CSF (20 ng/ml)): 1,549 Cpm
CPM of tritiated thymidine incorporated (Balb C splenocytes; 0.1 μg/ml, RPMI + IL-2 50 units/ml): 2,910 ± 351 CPM
CPM of tritiated thymidine incorporated (Balb C splenocytes; 0.1 μg/ml, RPMI + KLH 20 μg/ml): 4,254 ± 140 CPM and 4,284 ± 140 CPM
CPM of tritiated thymidine incorporated (Balb C splenocytes; 0.1 μg/ml, RPMI): 268 ± 74 CPM
CPM of tritiated thymidine incorporated (Balb C splenocytes; 0.3 μg/ml, RPMI + IL-2 50 units/ml): 2,395 ± 103 CPM
CPM of tritiated thymidine incorporated (Balb C splenocytes; 0.3 μg/ml, RPMI + KLH 20 μg/ml): 3,985 ± 101 CPM and 3,980 ± 101 CPM
CPM of tritiated thymidine incorporated (Balb C splenocytes; 0.3 μg/ml, RPMI): 142 ± 10 CPM and 147 ± 10 CPM
CPM of tritiated thymidine incorporated (Balb C splenocytes; 1.0 μg/ml, RPMI + IL-2 50 units/ml): 951 ± 122 CPM
CPM of tritiated thymidine incorporated (Balb C splenocytes; 1.0 μg/ml, RPMI + KLH 20 μg/ml): 1,742 ± 154 CPM and 1,747 ± 154 CPM
CPM of tritiated thymidine incorporated (Balb C splenocytes; 1.0 μg/ml, RPMI): 107 ± 25 CPM
% Cell Lysis (YAC-1 target cells; 0.01 μg/ml): −0.9 ± 0.5%
% Cell Lysis (YAC-1 target cells; 0.03 μg/ml): 2.1 ± 0.2%
% Cell Lysis (YAC-1 target cells; 0.1 μg/ml): 1.8 ± 0.4%
% Cytotoxicity (YAC-1 target cells; Swiss Webster murine splenocytes, YAC-1 targets, 48 hours with drugs, PT 0.01 μg/ml, IL-2 50 units/ml when present, effector to target ratio 80): 3.4 ± 0.9%
